Source: article PMC9804871, “Effect of Opicapone on Levodopa Pharmacokinetics in Patients with Fluctuating Parkinson's Disease” (Movement Disorders, 2022)
“Also recorded” adds a separate entry of the source.

How the values were obtained:
[1] = 12-hour levodopa plasma pharmacokinetics; type: in vivo, human (patients with PD)
Procedure: The study design is illustrated in Figure 1.
Pharmacokinetic evaluation occurred over 12 hours with sampling every 30 minutes, except for the last sample following each LD dose in the opicapone plus four LD intake regimen, which was sampled at 1 hour. The main pharmacokinetics parameters assessed included maximum observed plasma concentration (Cmax), time to achieve peak plasma levels (tmax), minimum observed plasma concentration (Cmin), plasma elimination half‐life (t1/2), area under the curve (AUC), and fluctuation index (FI; as an expression of peak‐to‐trough fluctuation, Cmax, and Cmin, relative to average concentration [Cavg]). The pharmacokinetics of the LD metabolite 3‐O‐methyldopa (3‐OMD) was also evaluated.
Descriptive statistics were used to summarize the pharmacokinetics parameters for LD and 3‐OMD for each of the three regimens. […] No formal comparison was performed between opicapone regimens.

[2] = opicapone pivotal trials; average; cited from earlier work
[3] = opicapone 50 mg added to LD/CD 400/100 mg (both regimens) vs LD/CD 500/125 mg without opicapone

Cc1c(Cl)c(C)[n+]([O-])c(Cl)c1-c1noc(-c2cc(O)c(O)c([N+](=O)[O-])c2)n1 [opicapone]
effect on LD minimal (trough) concentrations (Cmin) [1, 3]: at least doubled; also recorded: twofold increase | effect on LD plasma half-life (t1/2) [1, 3]: at least doubled | impact on time to reach (tmax) maximum LD concentrations ([1]; opicapone 50 mg added to either LD/CD 400/100 mg regimen): no impact | impact on maximal LD concentrations (Cmax) ([1]; opicapone 50 mg added to either LD/CD 400/100 mg regimen vs five-intake LD/CD 500/125 mg without opicapone): no significant impact | reduction of off time relative to placebo [2]: 1 h
